Source: US7927579B2, “Tandem analyses of noncovalently driven effectors for modulatory mapping of activities of protein sites” (priority 2003, dated 2011)
Where no end group is shown, it is not given here.

Key:
HIV I protease = HIV I protease (Human immunodeficiency virus type 1 group M subtype B, UniProt P04585); conditions: Danielson et al.; cited from earlier work
HIV protease I = target: T1, HIV protease I (Human immunodeficiency virus type 1 group M subtype B, UniProt P04585); conditions: covalent attachment to Cys95 at the dimer interfaces; Davis et al.; cited from earlier work
T1 construct: HIV-1 PR (15 μg/ml final concentration) was preincubated at 25 C

HIV PR [1] = target: T2, HIV PR (Human immunodeficiency virus type 1 group M subtype B, UniProt P04585); experiment: Octapeptide library screen against HIV PR with and without CuCl2; type: biochemical; conditions: non-substrate based inhibiting peptide; residual HIV PR activity measured after cupric ion scavenger
T2 construct: preincubating the tetrapeptide(s) with HIV PR then adding the disulfide
Experimental: Combinatorial libraries of octapeptides were synthesized using T, L, N, F, S, G, F Q, V and I at positions 3-6 to generate 10,000 octapeptides. E and I occupied positions 1 and 2, respectively, and G, L occupied positions […], respectively. The C-terminus was in amide form, and the N terminus was in amino form. The peptide libraries were synthesized by standard procedures known in the art, Houghten, supra. The libraries were screened against HIV PR with and without CuCl2. CuCl2 was added to block 50-75% activity. Libraries were screened against CuCl2 by preincubating the tetrapeptide(s) with HIV PR, then adding CuCl2 at t0 and waiting until time tx has elapsed, the time required to inhibit 50-75% of enzyme activity in the absence of the library. At tx residual HIV PR activity was measured according to Danielson et al, supra, after adding cupric ion scavenger, namely, iminodiacetic.

HIV PR [2] = target: T2, HIV PR; experiment: Tetrapeptide library screen against glutathione or II on HIV PR (assay in Salto et al.); type: biochemical; conditions: tetrapeptides preincubated with HIV PR, then disulfide added; (100 μM) printed; bind at the dimer interface
Experimental: Targeting Cys95. […] Davis et al. Biochemistry 20:2482-2488 (1996). For quantification of the irreversible inactivation of HIV proteases by these disulfides, HIV-1 PR (15 μg/ml final concentration) was preincubated at 25 C in 50 mM HEPES (pH 8.0), 1M NaCl, 1 mM EDTA, 5% Me2SO in the presence of a 10 μM to 1 mM concentration of each inhibitor. At various times, aliquots were removed and assayed for activity. The rates of inactivation were calculated after Salto et al. J. Biol. Chem. 269:10691-10698 (1994).
Combinatorial libraries containing tetrapeptides were synthesized with free C and N termini using T, L, N, F, R, S, V, G, F Q, and H as amino acid residues randomly located at the four positions of P4P3P2P1 according to procedures well known in the art (Houghten, R. A. Annu. Rev. Pharmacol. Toxicol. 2000, 40:273-282 and references therein). The amino acids were either spatially separated or synthesized in 100 pools of 100 tetrapeptides. Libraries were screened against glutathione or II by preincubating the tetrapeptide(s) with HIV PR then adding the disulfide and waiting until time t^ has elapsed (the time required to inhibit 50-75% of the biological target molecule's activity) in the absence of the library.

| Compound | inactivation of HIV protease I by covalent attachment to Cys95 (HIV protease I) | activity in library screen against disulfide inactivation of HIV PR (HIV PR [2]) | further results |
| --- | --- | --- | --- |
| [Cl][Cu][Cl] [Cupric ions, CuCl2] | – | – | inactivation of HIV I protease by binding to Cys67 and His69 (HIV I protease): specifically inactivate HIV I protease |
| O=C(O)c1cc(SSc2ccc([N+](=O)[O-])c(C(=O)O)c2)ccc1[N+](=O)[O-] [5,5′-dithiobis(2-nitrobenzoic acid)] | inactivate HIV protease I | – | – |
| LGQGVSIE-NH2 | – | – | inhibitory activity against HIV PR (HIV PR [1]): about 5 μM |
| TLNL [tetrapeptide with free C and N termini from combinatorial library] | – | most active | – |
| S-F-N-L (SFNL) [tetrapeptide with free C and N termini from combinatorial library] | – | most active | – |
| N[C@@H](CCC(=O)N[C@@H](CS)C(=O)NCC(=O)O)C(=O)O [glutathione] | inactivate HIV protease I | – | – |
